Measurements as given in ChEMBL document CHEMBL1142430, “Acremine G, dimeric metabolite from cultures of Acremonium byssoides A20” (J Nat Prod, 2008).

Key:
[1] = system: Plasmopara viticola; assay: Inhibition of germination of sporangia of Plasmopara viticola at 1 mM; format: functional
[2] = system: NCI-H460; assay: Cytotoxicity against human H460 cells; format: functional, cell-based

| SMILES | inhibition at 1000 µM [1] [%] | IC50 [2] [µM] |
| --- | --- | --- |
| CC1=CC2c3cc(O)c(C)cc3OC3(C1)C(=O)C(C)=CC(=O)C23/C=C/C(C)(C)O (racemic) | 72.5 | 48 |
| CC(C)(O)/C=C/C1=CC(=O)[C@](C)(O)CC1=O [ACREMINE B] | 57.7 | 36 |
| CC(C)(O)/C=C/C1=CC(=O)[C@](C)(O)C[C@@H]1O [ACREMINE A] | 58.2 | > 100 |
